{"source": "PubChem BioAssay AID2060359", "about": "(Molecular Pharmacology Branch, DTP, NCI, 2025);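 also: spheroids exposed to drugs for seven days before the viability read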", "test_system": "276233-004-R-J1-PDC spheroids with HUVEC/MSC, viability", "test": "Anticancer human tumor 276233-004-R-J1-PDC patient-derived colon adenocarcinoma cell line growth inhibition [TAK]", "conditions": "for IC50: curve of first compound; for viability, T/C: stronger effect = lower value", "outline": "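Drug combinations, each paired with TAK-243 or ipatasertib, were tested on multi-cell spheroids of 60% malignant cells, 25% HUVEC and 15% hMSC. Top concentrations were at or near the clinical Cmax (10 microM if undetermined), decreasing by half-log; viability is given as % test/control.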", "key": {"[1]": {"conditions": "second compound 0.3 µM, first compound 0.0316 µM"}, "[2]": {"conditions": "second compound 0.3 µM, first compound 0.1 µM"}, "[3]": {"conditions": "second compound 0.3 µM, first compound 0.316 µM"}, "[4]": {"conditions": "second compound 0.3 µM, first compound 1 µM"}, "[5]": {"conditions": "second compound 0.949 µM, first compound 0.0316 µM"}, "[6]": {"conditions": "second compound 0.949 µM, first compound 0.1 µM"}, "[7]": {"conditions": "second compound 0.949 µM, first compound 0.316 µM"}, "[8]": {"conditions": "second compound 0.949 µM, first compound 1 µM"}, "[9]": {"conditions": "second compound 3 µM, first compound 0.0316 µM"}, "[10]": {"conditions": "second compound 3 µM, first compound 0.1 µM"}, "[11]": {"conditions": "second compound 3 µM, first compound 0.316 µM"}, "[12]": {"conditions": "second compound 3 µM, first compound 1 µM"}, "[13]": {"conditions": "second compound 9.49 µM, first compound 0.0316 µM"}, "[14]": {"conditions": "second compound 9.49 µM, first compound 0.1 µM"}, "[15]": {"conditions": "second compound 9.49 µM, first compound 0.316 µM"}, "[16]": {"conditions": "second compound 9.49 µM, first compound 1 µM"}, "[17]": {"conditions": "second compound 30 µM, first compound 0.0316 µM"}, "[18]": {"conditions": "second compound 30 µM, first compound 0.1 µM"}, "[19]": {"conditions": "second compound 30 µM, first compound 0.316 µM"}, "[20]": {"conditions": "second compound 30 µM, first compound 1 µM"}}, "data": [{"smiles": "COc1c(OCCCN2CCOCC2)ccc2c3n(c(=NC(=O)c4cnc(N)nc4)nc12)CCN3", "note": "+ CC(C)NCC(C(=O)N1CCN(c2ncnc3c2C(C)CC3O)CC1)c1ccc(Cl)cc1", "values": [{"measurement": "IC50", "setting": "second compound 0.3 µM", "result": 31.3, "unit": "nM"}, {"measurement": "IC50", "setting": "second compound 0.949 µM", "result": 29, "unit": "nM"}, {"measurement": "IC50", "setting": "second compound 3 µM", "result": 26.4, "unit": "nM"}, {"measurement": "IC50", "setting": "second compound 9.49 µM", "result": 21.5, "unit": "nM"}, {"measurement": "IC50", "setting": "second compound 30 µM", "result": "< 3.16", "unit": "nM"}, {"measurement": "viability, T/C", "setting": "second compound 0.3 µM, first compound 0.00316 µM", "result": 74.1, "unit": "%"}, {"measurement": "viability, T/C", "setting": "second compound 0.3 µM, first compound 0.01 µM", "result": 78.6, "unit": "%"}, {"measurement": "viability, T/C", "setting": "[1]", "result": 49.7, "unit": "%"}, {"measurement": "viability, T/C", "setting": "[2]", "result": 41.8, "unit": "%"}, {"measurement": "viability, T/C", "setting": "[3]", "result": 43.7, "unit": "%"}, {"measurement": "viability, T/C", "setting": "[4]", "result": 52.2, "unit": "%"}, {"measurement": "viability, T/C", "setting": "second compound 0.949 µM, first compound 0.00316 µM", "result": 67, "unit": "%"}, {"measurement": "viability, T/C", "setting": "second compound 0.949 µM, first compound 0.01 µM", "result": 59.8, "unit": "%"}, {"measurement": "viability, T/C", "setting": "[5]", "result": 51.5, "unit": "%"}, {"measurement": "viability, T/C", "setting": "[6]", "result": 36.3, "unit": "%"}, {"measurement": "viability, T/C", "setting": "[7]", "result": 37.6, "unit": "%"}, {"measurement": "viability, T/C", "setting": "[8]", "result": 49.3, "unit": "%"}, {"measurement": "viability, T/C", "setting": "second compound 3 µM, first compound 0.00316 µM", "result": 66.8, "unit": "%"}, {"measurement": "viability, T/C", "setting": "second compound 3 µM, first compound 0.01 µM", "result": 53.3, "unit": "%"}, {"measurement": "viability, T/C", "setting": "[9]", "result": 46.8, "unit": "%"}, {"measurement": "viability, T/C", "setting": "[10]", "result": 46, "unit": "%"}, {"measurement": "viability, T/C", "setting": "[11]", "result": 41.5, "unit": "%"}, {"measurement": "viability, T/C", "setting": "[12]", "result": 61.7, "unit": "%"}, {"measurement": "viability, T/C", "setting": "second compound 9.49 µM, first compound 0.00316 µM", "result": 60.5, "unit": "%"}, {"measurement": "viability, T/C", "setting": "second compound 9.49 µM, first compound 0.01 µM", "result": 48.3, "unit": "%"}, {"measurement": "viability, T/C", "setting": "[13]", "result": 52.5, "unit": "%"}, {"measurement": "viability, T/C", "setting": "[14]", "result": 43, "unit": "%"}, {"measurement": "viability, T/C", "setting": "[15]", "result": 44, "unit": "%"}, {"measurement": "viability, T/C", "setting": "[16]", "result": 38.4, "unit": "%"}, {"measurement": "viability, T/C", "setting": "second compound 30 µM, first compound 0.00316 µM", "result": 34, "unit": "%"}, {"measurement": "viability, T/C", "setting": "second compound 30 µM, first compound 0.01 µM", "result": 34.5, "unit": "%"}, {"measurement": "viability, T/C", "setting": "[17]", "result": 33.2, "unit": "%"}, {"measurement": "viability, T/C", "setting": "[18]", "result": 32.9, "unit": "%"}, {"measurement": "viability, T/C", "setting": "[19]", "result": 25.9, "unit": "%"}, {"measurement": "viability, T/C", "setting": "[20]", "result": 41.5, "unit": "%"}]}, {"smiles": "Cc1nc(NC(=O)N2CCCC2C(N)=O)sc1-c1ccnc(C(C)(C)C(F)(F)F)c1", "note": "(stereo not given) + CC(C)NCC(C(=O)N1CCN(c2ncnc3c2C(C)CC3O)CC1)c1ccc(Cl)cc1", "values": [{"measurement": "IC50", "setting": "second compound 0.3 µM", "result": 7120, "unit": "nM"}, {"measurement": "IC50", "setting": "second compound 0.949 µM", "result": 988, "unit": "nM"}, {"measurement": "IC50", "setting": "second compound 3 µM", "result": 2690, "unit": "nM"}, {"measurement": "IC50", "setting": "second compound 9.49 µM", "result": 2010, "unit": "nM"}, {"measurement": "IC50", "setting": "second compound 30 µM", "result": "< 31.6", "unit": "nM"}, {"measurement": "viability, T/C", "setting": "[1]", "result": 95.3, "unit": "%"}, {"measurement": "viability, T/C", "setting": "[2]", "result": 77, "unit": "%"}, {"measurement": "viability, T/C", "setting": "[3]", "result": 79.2, "unit": "%"}, {"measurement": "viability, T/C", "setting": "[4]", "result": 69.4, "unit": "%"}, {"measurement": "viability, T/C", "setting": "second compound 0.3 µM, first compound 3.16 µM", "result": 60.1, "unit": "%"}, {"measurement": "viability, T/C", "setting": "second compound 0.3 µM, first compound 10 µM", "result": 44.7, "unit": "%"}, {"measurement": "viability, T/C", "setting": "[5]", "result": 77.3, "unit": "%"}, {"measurement": "viability, T/C", "setting": "[6]", "result": 78.8, "unit": "%"}, {"measurement": "viability, T/C", "setting": "[7]", "result": 71.9, "unit": "%"}, {"measurement": "viability, T/C", "setting": "[8]", "result": 49.4, "unit": "%"}, {"measurement": "viability, T/C", "setting": "second compound 0.949 µM, first compound 3.16 µM", "result": 50.9, "unit": "%"}, {"measurement": "viability, T/C", "setting": "second compound 0.949 µM, first compound 10 µM", "result": 40.9, "unit": "%"}, {"measurement": "viability, T/C", "setting": "[9]", "result": 63.7, "unit": "%"}, {"measurement": "viability, T/C", "setting": "[10]", "result": 77.3, "unit": "%"}, {"measurement": "viability, T/C", "setting": "[11]", "result": 67.5, "unit": "%"}, {"measurement": "viability, T/C", "setting": "[12]", "result": 58, "unit": "%"}, {"measurement": "viability, T/C", "setting": "second compound 3 µM, first compound 3.16 µM", "result": 46.3, "unit": "%"}, {"measurement": "viability, T/C", "setting": "second compound 3 µM, first compound 10 µM", "result": 50.8, "unit": "%"}, {"measurement": "viability, T/C", "setting": "[13]", "result": 54.5, "unit": "%"}, {"measurement": "viability, T/C", "setting": "[14]", "result": 64.5, "unit": "%"}, {"measurement": "viability, T/C", "setting": "[15]", "result": 63, "unit": "%"}, {"measurement": "viability, T/C", "setting": "[16]", "result": 55.8, "unit": "%"}, {"measurement": "viability, T/C", "setting": "second compound 9.49 µM, first compound 3.16 µM", "result": 46, "unit": "%"}, {"measurement": "viability, T/C", "setting": "second compound 9.49 µM, first compound 10 µM", "result": 39.8, "unit": "%"}, {"measurement": "viability, T/C", "setting": "[17]", "result": 39.1, "unit": "%"}, {"measurement": "viability, T/C", "setting": "[18]", "result": 40.9, "unit": "%"}, {"measurement": "viability, T/C", "setting": "[19]", "result": 34, "unit": "%"}, {"measurement": "viability, T/C", "setting": "[20]", "result": 32.9, "unit": "%"}, {"measurement": "viability, T/C", "setting": "second compound 30 µM, first compound 3.16 µM", "result": 27.4, "unit": "%"}, {"measurement": "viability, T/C", "setting": "second compound 30 µM, first compound 10 µM", "result": 24.5, "unit": "%"}]}]}
